Results on two compounds are retold here after patent publication US7326540B2, “Methods for identifying compounds that modulate stabilization of secretase-associated proteins” (priority 2003, dated 2008).

The subject of test [1] is BACE, PS1, nicastrin, Pen-2 and Aph1a mRNA. The test can be described thus: Northern blot of BACE and γ-secretase complex component mRNA in H4-APP751 cells. It counts as cell-based, human. The note with it: after 6 hours of STS treatment. On the procedure: FIG. 14 provides digitized images showing that transcription of BACE and γ-secretase complex components is decreased during apoptosis. Northern Blot analysis: H4-APP751 cells were treated with STS in serum free media. Total RNA was extracted using TRIZOL (Invitrogen). 20 μg of the resulting RNA were analyzed by Northern blot analysis performed as previously described (Koh, Y. H. et al., Faseb J 15, 1472-4 (2001)). Human cDNA of BACE, PS1 , nicastrin, Pen-2, Aph1a was labeled with [α-^32P]dCTP (PerkinElmer) using random hexanucleotide primers (Prime-a-gene labeling system; Promega). Ethidium staining of the gel (lower panel) confirmed equal RNA loading.
We next asked whether apoptosis increases protein levels of BACE, PS1, nicastrin, Pen-2 and Aph1a via increased synthesis. […] We next asked whether BACE, PS1, nicastrin, Pen-2 and Aph1a protein levels are increased during apoptosis due to decreased degradation. […] In contrast, TACE, full-length APP, and APP-CTFs were not stabilized during apoptosis (FIG. 15a). Given that the components of the β-amyloidogenic secretases are stabilized during apoptosis while many other proteins are degraded (e.g. TACE, APP), the apparent increase of protein levels at the latest time points of the CHX+STS time course was most likely due to a relative increase of stabilized protein when normalized for the equal amounts of total protein.

A further test concerns β-secretase. The test can be described thus: C99 levels by Western blot (WO2) in CAB cells. Format: cell-based, Chinese Hamster. The note with it: STS-induced apoptosis, CHO cells expressing APP751 and BACE (CAB). On the procedure:
(§1) Chinese Hamster Ovary (CHO) cells expressing APP751 and BACE (CAB), CHO cells expressing full-length APP and wild-type PS1 (CHO-APP751/PS1) or expressing C99 and wild-type PS1 (CHO-CC99/PS1), H4 human neuroglioma cells expressing APP751 (H4-APP751), mouse embryonic fibroblast (MEF), embryonic stem (ES) cells, and human epithelial A431 cells were grown as described previously (Marambaud, P. et al., Embo J 21, 1948-56 (2002); Cai, H. et al., Nat Neurosci 4, 233-4 (2001); Sato, N. et al., Nat Cell Biol 2, 863-70 (2000); Puglielli, L., Ellis, B. C., Saunders, A. J. & Kovacs, D. M., J Biol Chem 278, 19777-83 (2003); Wolfe, M. S. et al., Nature 398, 513-7 (1999)). For the induction of apoptosis, we used staurosporine or etoposide (Calbiochem (EMD Biosciences, San Diego, Calif.)). For Aβ measurements, cells were seeded at the density of 0.5×10^6 cells per well in 6 well plates. After 48 hours, cells were treated with either STS (1 μM) for 6 hours. In order to inhibit caspase activation a sister plate of cells was pre-treated with zVAD (1001M, Enzyme Systems Products) for 1 hour before STS treatment. For time-course experiments, cells were seeded at the density of 2×10^6 cells per 100 mm dish and treated with STS (1 μM) or etoposide (100 μg/mL). At different time points (0, 3, 6, 9, 12 and 24 hours), the cells were scraped, centrifuged and then lysed in buffer containing 1% NP40. […]

Test [2] has as its system γ-secretase complex proteins. The test can be described thus: γ-secretase complex protein levels by Western blot in A431 cells. The note with it: after 6 hours of STS treatment. It counts as cell-based, human. The protocol:
as §1

In a further test the test system is γ-secretase. The test is described as follows: Secreted Aβ1-total ELISA in CHO-CC99/PS1 cells. It counts as cell-based, Chinese Hamster. To be noted: STS-treated CHO-CC99/PS1 cells, 6 hours. On the procedure: as §1, with “hours.” for “hours. In order to inhibit caspase activation a sister plate of cells was pre-treated with zVAD (1001M, Enzyme Systems Products) for 1 hour before STS treatment. For time-course experiments, cells were seeded at the density of 2×10^6 cells per 100 mm dish and treated with STS (1 μM) or etoposide (100 μg/mL). At different time points (0, 3, 6, 9, 12 and 24 hours), the cells were scraped, centrifuged and then lysed in buffer containing 1% NP40.”
Secreted Aβ1-total was measured in the conditioned media of untreated cells or of cells treated with STS or STS plus zVAD using a sensitive ELISA (Wolfe, M. S. et al., Nature 398, 513-7 (1999). At least three different experiments were carried out and each experiment was performed at least in triplicate. […]
A general note: ELISA stands for enzyme-linked immunosorbent assay.

Test [3] concerns γ-secretase complex proteins. The test can be described thus: γ-secretase complex protein levels by Western blot in CHO cell lines. Format: cell-based, Chinese Hamster. On the procedure:
as §1
A general note: A western blot detects proteins with antibodies after separation by electrophoresis.

Test [4] has as its system γ-secretase complex proteins. The test can be described thus: γ-secretase complex protein levels by Western blot in H4 cells. Format: cell-based, human. To be noted: zVAD treatment. On the procedure:
Protein levels of PS1, nicastrin, Pen2 and Aph1A (components of the γ-secretase complex) were determined by Western blot (WB) analysis in H4 cells. […] The immature form of nicastrin appeared to be increased earlier (6 hrs) concurrently with caspase-3 activation (FIG. 5A). Furthermore, PS1-NTF, PS1-CTF, Pen2 and Aph1A were also up regulated (FIG. 5A). STS treatment also led to the generation of a caspase-mediated fragment of PS1-CTF (indicated by an arrow as a PS1-CTF). […] As a control for protein loading, the same blot was reprobed with an anti-Cu, Zn-SOD Ab showing that Cu, Zn-SOD protein levels were not increased.

Where a SMILES comes first, the peptide text is derived from it. The star is where a group is joined. Cbz = O=C(OCc1ccccc1)*; CH2F = FC*

On to `CN[C@@H]1C[C@H]2O[C@@](C)([C@@H]1OC)n1c3ccccc3c3c4c(c5c6ccccc6n2c5c31)C(=O)NC4` [STS, staurosporine], for which the “BACE, PS1, nicastrin, Pen-2 and Aph1a mRNA levels” value in test [1] is recorded as “virtually undetectable”. Further, the “levels of C99” value with β-secretase is reported as “increased”. Besides, in test [2], the “immature nicastrin levels increase” value was about 1.5 fold; the “protein levels of PS1, Pen-2 and Aph1a” value is on record as “unchanged”. The “Aβ1-total increase compared to untreated cells” value in the test on γ-secretase is on record as about 1.5 fold. Moreover, in test [3] (STS treatment, CHO cells overexpressing APP751 and PS1WT and mouse fibroblasts), the “nicastrin and Pen2 protein levels” value is on record as “up-regulated”. Further, in test [3] (six hours after STS treatment, CAB cells), the “endogenous nicastrin protein levels” value is reported as “increase”.

Take `COC(=O)C[C@H](NC(=O)[C@H](C)NC(=O)[C@@H](NC(=O)OCc1ccccc1)C(C)C)C(=O)CF` [zVAD] (Cbz-Val-Ala-Asp(OMe)-CH2F): in test [4], the “upregulation of γ-secretase complex proteins during STS-induced apoptosis” value was “prevented upregulation”.
